# Results published in publication PMC7618454, “Interleukin-1 receptor-associated kinase 4 (IRAK4) is a critical regulator of inflammatory signalling through toll-like receptors 4 and 7/8 in murine and human lungs” (British journal of pharmacology, 2024).
# pIC50: −log10 of the molar value.
# Key:
# [1] = molecular target: T1, interleukin-1 receptor-associated kinase 4 (IRAK4) (Mus musculus, UniProt Q8R4K2); test: IMAP fluorescence polarization kinase assay, […] ATP; type: biochemical
# T1 construct: kinase domain, aa 153–459, N-terminal His6-tagged
# T1 sequence (Q8R4K2 153-459): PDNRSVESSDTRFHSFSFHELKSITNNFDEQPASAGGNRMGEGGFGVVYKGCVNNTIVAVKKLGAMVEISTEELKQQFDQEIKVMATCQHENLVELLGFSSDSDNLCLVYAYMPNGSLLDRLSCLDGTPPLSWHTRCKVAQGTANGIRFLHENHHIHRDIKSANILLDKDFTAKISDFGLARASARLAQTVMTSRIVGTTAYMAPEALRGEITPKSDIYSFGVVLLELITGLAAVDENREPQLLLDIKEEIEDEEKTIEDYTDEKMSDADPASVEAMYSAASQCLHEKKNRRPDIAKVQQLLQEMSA
# [2] = molecular target: T2, interleukin-1 receptor-associated kinase 4 (IRAK4) (Homo sapiens, UniProt Q9NWZ3); test: IMAP fluorescence polarization kinase assay, […] ATP; type: biochemical
# T2 construct: kinase domain, aa 153–460, N-terminal His6-tagged
# T2 sequence (Q9NWZ3 153-460): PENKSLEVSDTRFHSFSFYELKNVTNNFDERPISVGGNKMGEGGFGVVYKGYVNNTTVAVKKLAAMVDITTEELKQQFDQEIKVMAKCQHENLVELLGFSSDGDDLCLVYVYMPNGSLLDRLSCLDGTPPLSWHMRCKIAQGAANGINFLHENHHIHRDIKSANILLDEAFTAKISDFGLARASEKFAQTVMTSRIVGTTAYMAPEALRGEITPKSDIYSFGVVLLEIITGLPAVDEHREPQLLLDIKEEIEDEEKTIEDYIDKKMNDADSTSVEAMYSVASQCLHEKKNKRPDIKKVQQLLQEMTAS
substance,measurement,setting,value
BI1543673,pIC50,[1],~8.70
same,pIC50,[2],~8.70
